Data reported in patent US20190374509A1, “Methods of Using Metamizole for Treatment of Pyrexia in Equines” (Kindred Biosciences, Inc., priority 2018, published 2019).

System: horses
Experiment: Margin of safety study, IV three times daily for 9 days: clinical pathology (serum chemistry, hematology, urinalysis), body weight, physical examination
Format: in vivo
Protocol: A study was conducted to evaluate the margin of safety of metamizole when administered intravenously to horses for 9 days at doses of 0 mg/kg (0×), 30 mg/kg (1×), 60 mg/kg (2×), and 90 mg/kg (3×) of body weight three times daily (TID), every 8 hours±30 min.
This was a prospective, blinded, randomized, placebo-controlled, parallel-group laboratory study in research horses. Thirty-two horses were enrolled in the study (Table 1).
Treatment phase involved administration of the investigational drug or placebo. The investigational drug was a sterile injectable formulation of dipyrone (Zimeta™, Corden Pharma, Caponago, Italy) (500 mg/mL) in 100 mL glass bottles. The placebo was sterile injectable saline (Nova-Tech Inc, Grand Island, NE) (0.9% sodium chloride) in 500 mL plastic bottles labeled for veterinary use. Dipyrone treatment groups were 30 mg/kg (1×), 60 mg/kg (2×), and 90 mg/kg (3×). Placebo treatment group was saline administered at a volume to match the 3× dipyrone group (0×). The dose was calculated based on body weight and administered three times daily for nine consecutive days. Due to the large volume of injection at the higher dose groups, treatment was administered via indwelling intravenous (IV) catheters. Intravenous catheters were placed using standard techniques. Horses were sedated with xylazine (AnaSed® LA, VetOne, MWI, Boise, Id.) and the skin was desensitized with subcutaneous injection of lidocaine (VetOne, MWI, Boise, Id.). Intravenous catheters were replaced at the discretion of the study director and were maintained with heparinized saline flush prior to and following dose administration.
Randomization occurred on Study Day −1. […] .
All statistical analyses were performed using SAS, version 9.4 (SAS Institute, Cary, N.C.). The individual horse was the experimental unit in the statistical analysis. For statistical modeling, all main effects, interaction terms, and pairwise comparisons of the active groups (dipyrone) with the placebo group were assessed at the two-sided 0.10 significance level (unadjusted) with the exception of the three-way interaction, which was assessed at the two-sided 0.05 significance level (unadjusted).
For continuous endpoints with repeated post-treatment measurements (serum chemistry, coagulation, hematology, urinalysis, body weight, body temperature, heart rate and respiratory rate), repeated measurement analysis of covariance (SAS MIXED procedure RMANCOVA) was used to evaluate a model including treatment, time, sex, treatment by sex interaction, treatment by time interaction, and treatment by time by sex three-way interaction as fixed effects. In addition, baseline values were included as a covariate and remained in the model regardless of its significance. Baseline values were defined as the values prior to and nearest to the first dosing.

[1] = 1X, 30 mg/kg IV every 8 hours, Day 4
[2] = 1X, 30 mg/kg IV every 8 hours, Day 8
[3] = 1X, 30 mg/kg IV every 8 hours, Mares
[4] = 2X, 60 mg/kg IV every 8 hours, Day 4
[5] = 2X, 60 mg/kg IV every 8 hours, Day 8
[6] = 2X, 60 mg/kg IV every 8 hours, Mares
[7] = 3X, 90 mg/kg IV every 8 hours, Day 4
[8] = 3X, 90 mg/kg IV every 8 hours, Day 8
[9] = 3X, 90 mg/kg IV every 8 hours, Mares

In the case of `Cc1c(N(C)CS(=O)(=O)O)c(=O)n(-c2ccccc2)n1C` [dipyrone, [(2,3-dihydro-1,5-dimethyl-3-oxo-2-phenyl-1H-pyrazol-4-yl)methylamino] methanesulfonic acid], the “Absolute Basophil Count Day 4 Range” value [1] is reported as 0.00-0.19 cells 10^3/μL, the “Cholesterol Day 4 Range” value [1] is reported as 54 to 77 mg/dL and the “Cholesterol LS Means” value [1] is reported as 65.352 mg/dL. The “Creatinine Day 4 Range” value [1] was 0.9 to 2.0 mg/dL, the “Mean Corpuscular Hemoglobin Concentration Day 4 Range” value [1] was 34.9 to 36.1 g/dL and the “Mean Corpuscular Volume Day 4 Range” value [1] was 40.8 to 48.7 fL. For the same compound, the “Mean Corpuscular Volume LS Means” value [1] was 46.512 fL, the “Percent Basophil Day 4 Range” value [1] was 0.0-2.3% and the “Total Bilirubin Day 4 Range” value [1] was 0.8 to 3.4 mg/dL. For the same compound, the “Total Bilirubin LS Means” value [1] was 2.301 mg/dL, the “Absolute Basophil Count Day 8 Range” value [2] was 0.00-0.52 cells 10^3/μL and the “Cholesterol Day 8 Range” value [2] was 64 to 87 mg/dL. The “Creatinine Day 8 Range” value [2] was 0.6 to 1.6 mg/dL, the “Creatinine LS Means” value [2] was 1.118 mg/dL and the “Mean Corpuscular Hemoglobin Concentration Day 8 Range” value [2] was 34.1 to 39.4 g/dL. The “Mean Corpuscular Hemoglobin Concentration LS Means” value [2] was 35.513 g/dL, the “Mean Corpuscular Volume Day 8 Range” value [2] was 40.8 to 49.3 fL and the “Mean Corpuscular Volume LS Means” value [2] was 47.000 fL. The “Percent Basophil Day 8 Range” value [2] was 0.0-2.6%, the “Total Bilirubin Day 8 Range” value [2] was 1.7 to 4.1 mg/dL and the “Total Bilirubin LS Means” value [2] was 2.914 mg/dL. The “Percent Basophil LS Means” value (1X, 30 mg/kg IV every 8 hours, Geldings) was 0.849%, the “Absolute Basophil Count LS Means” value [3] was 0.200 cells 10^3/μL and the “Percent Basophil LS Means” value [3] was 1.374%. For the same compound, the “Absolute Basophil Count Day 4 Range” value [4] was 0.00-0.12 cells 10^3/μL, the “Cholesterol Day 4 Range” value [4] was 43 to 74 mg/dL and the “Cholesterol LS Means” value [4] was 56.772 mg/dL. For the same compound, the “Creatinine Day 4 Range” value [4] was 1.1 to 2.0 mg/dL, the “Mean Corpuscular Hemoglobin Concentration Day 4 Range” value [4] was 34.2 to 36.1 g/dL and the “Mean Corpuscular Volume Day 4 Range” value [4] was 41.7 to 49.4 fL. For the same compound, the “Mean Corpuscular Volume LS Means” value [4] was 46.284 fL, the “Percent Basophil Day 4 Range” value [4] was 0.0-1.3% and the “Total Bilirubin Day 4 Range” value [4] was 1.6 to 4.0 mg/dL. For the same compound, the “Total Bilirubin LS Means” value [4] was 2.745 mg/dL, the “Absolute Basophil Count Day 8 Range” value [5] was 0.00-0.21 cells 10^3/μL and the “Cholesterol Day 8 Range” value [5] was 52 to 87 mg/dL. The “Creatinine Day 8 Range” value [5] was 0.6 to 1.4 mg/dL, the “Creatinine LS Means” value [5] was 0.958 mg/dL and the “Mean Corpuscular Hemoglobin Concentration Day 8 Range” value [5] was 32.9 to 35.5 g/dL. The “Mean Corpuscular Hemoglobin Concentration LS Means” value [5] was 34.080 g/dL, the “Mean Corpuscular Volume Day 8 Range” value [5] was 43.2 to 50.8 fL and the “Mean Corpuscular Volume LS Means” value [5] was 47.134 fL. The “Percent Basophil Day 8 Range” value [5] was 0.0-2.7%, the “Total Bilirubin Day 8 Range” value [5] was 1.6 to 6.1 mg/dL and the “Total Bilirubin LS Means” value [5] was 4.495 mg/dL. The “Percent Basophil LS Means” value (2X, 60 mg/kg IV every 8 hours, Geldings) was 0.949%, the “Absolute Basophil Count LS Means” value [6] was 0.059 cells 10^3/μL and the “Percent Basophil LS Means” value [6] was 0.520%. The “Absolute Basophil Count Day 4 Range” value [7] was 0.00-0.39 cells 10^3/μL, the “Cholesterol Day 4 Range” value [7] was 43 to 73 mg/dL and the “Cholesterol LS Means” value [7] was 54.144 mg/dL. The “Creatinine Day 4 Range” value [7] was 1.1 to 2.1 mg/dL, the “Mean Corpuscular Hemoglobin Concentration Day 4 Range” value [7] was 34.3 to 36.0 g/dL and the “Mean Corpuscular Volume Day 4 Range” value [7] was 43.0 to 50.4 fL. For the same compound, the “Mean Corpuscular Volume LS Means” value [7] was 46.560 fL, the “Percent Basophil Day 4 Range” value [7] was 0.0-4.0% and the “Total Bilirubin Day 4 Range” value [7] was 1.7 to 5.5 mg/dL. For the same compound, the “Total Bilirubin LS Means” value [7] was 3.074 mg/dL, the “Absolute Basophil Count Day 8 Range” value [8] was 0.00-0.41 cells 10^3/μL and the “Cholesterol Day 8 Range” value [8] was 55 to 96 mg/dL. For the same compound, the “Creatinine Day 8 Range” value [8] was 0.7 to 1.6 mg/dL, the “Creatinine LS Means” value [8] was 1.144 mg/dL and the “Mean Corpuscular Hemoglobin Concentration Day 8 Range” value [8] was 33.1 to 34.5 g/dL. The “Mean Corpuscular Hemoglobin Concentration LS Means” value [8] was 33.899 g/dL, the “Mean Corpuscular Volume Day 8 Range” value [8] was 43.8 to 51.3 fL and the “Mean Corpuscular Volume LS Means” value [8] was 47.708 fL. The “Percent Basophil Day 8 Range” value [8] was 0.0-2.1%, the “Total Bilirubin Day 8 Range” value [8] was 2.8 to 6.2 mg/dL and the “Total Bilirubin LS Means” value [8] was 4.579 mg/dL. For the same compound, the “Percent Basophil LS Means” value (3X, 90 mg/kg IV every 8 hours, Geldings) was 0.924%, the “Absolute Basophil Count LS Means” value [9] was 0.188 cells 10^3/μL and the “Percent Basophil LS Means” value [9] was 1.731%. For the same compound, the “Urinalysis, body weights, and physical examination parameters” value (30, 60, 90 mg/kg IV every 8 hours for 9 days vs placebo) was “No significant differences”.
